Assay results: patent publication US4259450A, “Antibiotic acanthomycin and process for preparing” (The Upjohn Company, priority 1977, dated 1981)

Legend:
Solubilities = assay type: physicochemical
S. aureus [1] = test: in vivo protection of S. aureus infected mice
Description: Acanthomycin was also tested in vivo in standard laboratory mice. […] Against S. aureus infected mice the CD50 was 1.0 mg/kg.

Sarcina lutea = test: standard disc (12.7 mm) plate assay; assay type: cell-based
Description: (§1) Acanthomycin was tested for antibacterial activity in a standard tube assay using nutrient broth as the medium. The minimum inhibitory concentration in mcg/ml against S. aureus was 50, and against S. lutea it was 25. Additional testing on a standard disc (12.7 mm) plate assay gave the following results:
(§2) The fermentation can be monitored by a disc-plate assay using B. subtilis as the test organism and deionized H2 O as diluent. A unit volume (0.08 ml) of solution containing the substance to be assayed is placed on a 12.7 mm paper disc which is then placed on an agar plate seeded with the assay organism. The agar plate is then incubated for 16 to 18 hours at 32° to 37° C. A biounit (BU) is defined as the concentration of the antibiotic which gives a 20 mm zone of inhibition under the standard assay conditions. Thus, if for example a fermentation beer has to be diluted 1/100 to give a 20 mm zone of inhibition, the potency of such beer is 100 BU/ml.

Bacillus cereus = test: standard disc (12.7 mm) plate assay; assay type: cell-based
Description: as §1, §2

Streptococcus pyogenes = test: standard disc (12.7 mm) plate assay; assay type: cell-based
Description: as §1, §2

Staphylococcus aureus = test: standard disc (12.7 mm) plate assay; assay type: cell-based
Description: as §1, §2

Bacillus subtilis = test: standard disc (12.7 mm) plate assay; assay type: cell-based
Description: as §1, §2

S. pyogenese = test: in vivo protection of S. pyogenes infected mice; conditions: administered subcutaneously
S. aureus [2] = test: standard tube assay for antibacterial activity, nutrient broth; assay type: cell-based, Staphylococcus aureus
Description: as §1, with “results: […]” for “results:”

S. lutea = test: as above; assay type: cell-based, Sarcina lutea
Description: as §1, with “results: […]” for “results:”

[3] = free acid, slightly soluble, ca.

Q: For acanthomycin ammonium salt, which “solubility in lower alcohols” value (Solubilities; salts (ammonium and sodium)) is on record?
A: The value was “soluble”.

Q: What about the solubility in water (Solubilities; salts (ammonium and sodium)) of the same substance?
A: Its solubility in water is “soluble”.

Q: Which results are given for acanthomycin?
A: solubility in dimethylformamide (Solubilities; free acid): soluble; solubility in dimethylsulfoxide (Solubilities; free acid): soluble; solubility in ether (Solubilities; free acid): relatively insoluble; solubility in halogenated hydrocarbon solvents (Solubilities; free acid): relatively insoluble; solubility in saturated hydrocarbon solvents (Solubilities; free acid): relatively insoluble; solubility in water (Solubilities; free acid): relatively insoluble; solubility in ethanol (Solubilities; [3]): 1000 to 2000 µg/mL; solubility in methanol (Solubilities; [3]): 1000 to 2000 µg/mL; CD50 (S. aureus [1]): 1.0 mg/kg; Zone (Sarcina lutea; 0.31 mg/ml): 25 mm; Zone (Sarcina lutea; 0.62 mg/ml): 27 mm; Zone (Sarcina lutea; 1.25 mg/ml): 30 mm; Zone (Sarcina lutea; 2.5 mg/ml): 32 mm; Zone (Sarcina lutea; 5 mg/ml): 34 mm; Zone (Sarcina lutea; 10 mg/ml): 35 mm; Zone (Bacillus cereus; 0.31 mg/ml): 17 mm; Zone (Bacillus cereus; 0.62 mg/ml): 20 mm; Zone (Bacillus cereus; 1.25 mg/ml): 21 mm; Zone (Bacillus cereus; 2.5 mg/ml): 23 mm; Zone (Bacillus cereus; 5 mg/ml): 25 mm; Zone (Bacillus cereus; 10 mg/ml): 26 mm; Zone (Streptococcus pyogenes; 0.31 mg/ml): 34 mm; Zone (Streptococcus pyogenes; 0.62 mg/ml): 36.5 mm; Zone (Streptococcus pyogenes; 1.25 mg/ml): 38.5 mm; Zone (Streptococcus pyogenes; 2.5 mg/ml): 40 mm; Zone (Streptococcus pyogenes; 5 mg/ml): 40 mm; Zone (Streptococcus pyogenes; 10 mg/ml): 41.5 mm; Zone (Staphylococcus aureus; 0.31 mg/ml): 22.5 mm; Zone (Staphylococcus aureus; 0.62 mg/ml): 24.5 mm; Zone (Staphylococcus aureus; 1.25 mg/ml): 26.5 mm; Zone (Staphylococcus aureus; 2.5 mg/ml): 28 mm; Zone (Staphylococcus aureus; 5 mg/ml): 28.5 mm; Zone (Staphylococcus aureus; 10 mg/ml): 29.5 mm; activity against S. aureus (Staphylococcus aureus; statement in words): active; Zone (Bacillus subtilis; 0.31 mg/ml): 26 mm; Zone (Bacillus subtilis; 0.62 mg/ml): 28 mm; Zone (Bacillus subtilis; 1.25 mg/ml): 30 mm; Zone (Bacillus subtilis; 2.5 mg/ml): 31.5 mm; Zone (Bacillus subtilis; 5 mg/ml): 33 mm; Zone (Bacillus subtilis; 10 mg/ml): 34 mm; activity against B. subtilis (Bacillus subtilis; statement in words): active; CD50 (S. pyogenese): 0.23 (0.17-0.31) mg/kg; minimum inhibitory concentration (S. aureus [2]): 50 µg/mL; minimum inhibitory concentration (S. lutea): 25 µg/mL
